pEC50: −log10 of the molar value. Where two headings read alike, the source gives them in different places.
Experiments:
Caco-2/TC7 cells [1] = assay: Stimulation of Caco-2/TC7 cells by IL-1β, IL-8 secretion (ELISA); assay type: cell-based, human
From the text: 1.1.1. The Caco-2/TC7 Cell Line • The Caco-2 cell line is derived from a human colon adenocarcinoma and represents a cell culture model of enterocytes lining the epithelium of the small intestinal. […] During the exponential growth phase (from seeding to confluence), the cells remain undifferentiated. At confluence, they can spontaneously (in the absence of differentiation inducers) differentiate and progressively polarize. The differentiation process, which is a growth-related mechanism, is maximal at the end of confluence (stationary phase of the growth curve). • The cells develop a brush border at the apical pole containing microvilli and with characteristic enterocytic enzymes, such as hydrolases. • In accordance with the published literature, the Caco-2/TC7 cells in our experiments were seeded at 10^5 cells/well (equivalent to 10-12×10^3 cells/cm^2) in 6-well plastic culture plates. The cells were maintained in a glucose-rich medium (high glucose in the DMEM GlutaMAX medium 4.5 g/I glucose) supplemented with 20% heat-inactivated foetal calf serum, 1% nonessential amino acids NEAA, and 1% penicillin streptomycin. The cells were grown at 37° C. in a 10% CO2/air atmosphere. The medium was changed every day. Under these conditions, the cells were confluent on day 6. On day 17, the cells were serum-starved, and were used on day 18.
1.2.1. Stimulation of Caco-2/TC7 with Cytokines • The Caco-2/TC7 cells were seeded in 6-well plates at 100,000 cells/well and grown for 18 days. On day 17, the cells were serum-starved, which means that the cell medium was replaced with a foetal calf serum-free medium, and used on day 18. • The stimulation medium was composed of a medium referred to as “starvation medium”, i.e. without foetal calf serum (DMEM GlutaMAX, 1% NEAA, 1% penicillin-streptomycin) with 100 μM of 2-HQ. The cells were incubated for 18 h at 37° C. with 2 ml of stimulation medium containing 0.1% DMSO (negative control) or stimulation medium containing the compounds tested at desired concentrations, with or without proinflammatory cytokines to induce an inflammation. To induce the inflammation, either the IL-1β at 25 ng/ml or the combination of TNF-α and IFN-γ at 50 ng/ml each were used. After 18 h, the supernatants were collected and stored at −80° C. before analysis by ELISA test. The cells were washed with 1 ml of PBS 1×/well, and lysed in 100 μl of PBS 1× containing 1% Triton X-100. The cells were harvested by scraping and stored at −80° C. before the quantification of the protein. The dosing of the LDH was performed immediately before freezing. • All the experiments on the cells were performed in triplicates.
1.2.4. Quantification of the Human Cytokines by ELISA • The levels of the proinflammatory cytokine IL-8 produced by the cells were determined in the cell supernatants and/or cell lysates using the commercially available IL-8 ELISA detection kit (Duoset Human C×CL8/IL-8, ref. DY208) provided by R & D Systems (Minneapolis, Minn., USA) according to the instructions of the manufacturer. • All the cytokine levels were first normalized to the protein content determined in the corresponding cell lysates. Then, to compare the experiments, they could be further normalized using the activated control condition (DMSO+cytokines) as the 100% response.

E. coli K12 strain = assay: Bactericidal dosage on the E. coli K12 strain (absorbance at 600 nm); assay type: cell-based; conditions: for comparative survival of E. coli K12: all concentrations, maximum 100 μM shown, 18 h
Description: 1.1.4. Bactericidal Dosage • The K12 strain of E. coli was grown on agar on day 0 and a colony was transferred to the LYBHI liquid bacterial culture medium on day 1. On day 2, the colony was diluted 1:100 in LYBHI medium and amplified for 18 hours before transfer to an opaque 96-well plate. In each well, LYBHI, controls or increasing doses of tested molecules and bacteria were distributed. The absorbance at 600 nm was read at start-up (t=0) and after an 18-hour incubation. The raw absorbance values were corrected using the absorbance of solutions without bacteria. All experiments were performed twice, each with 4 replicates.
The E. coli K12 strain was cultured at D0 on agar gel, and then a selected colony was transferred to a liquid bacterial culture LYBHI medium at D1. At day 2, this colony was diluted 1:100 in LYBHI medium, and maintained for 18 hours for expansion before distribution in an opaque 96-well plate. In each well were distributed: LYBHI medium, bacterial culture, and test or control compounds. The absorbance of the wells was read at 600 nm at t0 and t18h. The raw absorbance values were corrected against the absorbance of the wells containing only LYBHI medium without bacteria or compounds.

human keratinocytes = assay: Inhibition of IL-8 secretion by human keratinocytes stimulated by IL-17 and TNF-α; assay type: cell-based; conditions: test of FIG. 4
Caco-2/TC7 cells [2] = assay: Cytotoxicity test, LDH secretion, Caco-2/TC7; assay type: cell-based; conditions: 1-100 μM; for measured cytotoxicity (LDH): Caco-2/TC7
Description: (§1) 1.2.6. […] To measure the concentration of LDH in the cell lysate, 800 μL of NADH was added to 10 μL of […] and 190 μL of 0.1 M PBS in a plastic cuvette, and the decrease in the absorbance at 340 nm was monitored for 1 min. […] The percentage of cytotoxicity could be established with the formula: […]
(§2) The cytotoxicity of the tested and control compounds was evaluated using a measurement test of the LDH (Lactate Dehydrogenase) secretion. This test is based on the measurement of the amount of LDH secreted by the cells in their supernatant, compared to the amount of LDH that will remain in the intracellular compartment. This ratio provides an indication of the membrane damage suffered by the cells, and thus of the cytotoxicity of the compound.
(§3) Two methods were used to perform this test: the measurement using an extemporaneously prepared pyruvate/NADH solution, or using the Cytotoxicity Detection Kit^PLUS(LDH) from the manufacturer Roche (Sigma-Aldrich).
(§4) Pyruvate/NADH method: pyruvate/NADH solution prepared with 4.1 mg pyruvic acid (0.62 mM) and 7.7 mg NADH (0.18 mM) in 60 ml of 0.1M PBS (pH 7.4).
(§5) For the measurement of the LDH concentration in the supernatants, 800 μL of NADH was added to 200 μL of supernatant in plastic spectrometry cuvettes, and the decrease in absorbance of the final solution was read at 340 nm for 1 min. For the measurement of the LDH concentration in the cell lysates, 800 μL of NADH was added to 10 μL of cell lysates and 190 μL of 0.1M PBS in plastic spectrometry cuvettes, and the decrease in absorbance of the final solution was read at 340 nm for 1 min. The percentage of LDH secreted was then calculated by the ratio of the decay slopes of the absorbance of the supernatants and of the cell lysates (respectively).
(§6) Cytotoxicity Detection Kit^PLUS (LDH) method: absorbance test performed according to the manufacturer's instructions. The percentage of LDH secreted was then calculated by the formula: […]

human lymphocytes = assay: Inhibition of IL-2 secretion by human lymphocytes stimulated by CD2, CD3 and CD28; assay type: cell-based; conditions: test of FIG. 5
Raw264.7 murine cells = assay: Cytotoxicity test, LDH secretion, Raw264.7; assay type: cell-based; conditions: as early as 50 μM; basal and stimulated conditions
Description: as §1, §2, §3, §4, §5, §6

LasR receptor = target: T1, LasR receptor (Pseudomonas aeruginosa, UniProt P25084); assay: Activation of the LasR receptor on bacterial reporter strain E. coli pSB1075 (bioluminescence); assay type: cell-based
T1 construct: expressed in transfected cells; host or cells: Escherichia coli carrying plasmid pSB1075
T1 sequence (P25084 whole entry): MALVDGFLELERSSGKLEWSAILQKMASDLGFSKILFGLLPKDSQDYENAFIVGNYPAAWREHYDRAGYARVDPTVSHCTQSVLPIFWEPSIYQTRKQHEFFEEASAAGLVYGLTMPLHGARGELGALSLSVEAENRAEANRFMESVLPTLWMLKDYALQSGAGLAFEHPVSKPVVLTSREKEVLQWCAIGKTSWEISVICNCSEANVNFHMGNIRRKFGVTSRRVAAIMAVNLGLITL
From the text: 1.1.3. The Bacterial Reporter Strain E. coli pSB1075 • A bacterial reporter strain of the Quorum Sensing was used to study the ability of the molecules to be recognized by the Pseudomonas aeruginosa AHL receptor (LasR) and induce an activation. […] This bioluminescent strain was modified by addition of a plasmid pSB1075. This plasmid contains genes encoding both tetracycline resistance and the expression of the LasR AHL receptor from the Pseudomonas aeruginosa bacteria, as well as a fusion gene derived from the LasR promoter and the luxCDABE gene from Photorhabdus luminescence. The bacterial strain was grown in the LB medium supplemented with 5 μg/ml tetracycline to exert a selection pressure and ensure that only the desired strain was amplified. The fusion gene included in the plasmid gives the bacteria the ability to emit a bioluminescence when the LasR receptor is activated, and provides the user with a robust test for the molecular screening. […] On day 1, the culture was diluted 1:100 (P1) in 10 ml of LB medium supplemented with 5 μg/ml tetracycline and maintained for 24 hours at 37° C. under stirring at 70 rpm. On day 2, the experiment took place: a bacterial suspension extemporaneously diluted 1:10 in LB medium supplemented with 5 μg/ml tetracycline (P2) was dispensed into a black opaque 96-well plate and incubated for 4 hours with a range of AHL concentrations or controls until the resulting luminescence was read at the end point. All experiments were performed in triplicates.
1.3. […] This bioluminescent strain was developed by the addition of a plasmid pSB1075 containing genes encoding the tetracycline resistance and the expression of the LasR AHL receptor, as well as a fusion gene of the LasR promoter and the luxCDABE gene of Photorhabdus luminescence. • On day 1, a 1/100 dilution of the bacterial strain (P1) was grown for 24 hours at 37° C. under stirring (70 rpm) in a LB medium containing 5 μg/ml tetracycline (pressure selective). On day 2, P1 was diluted 1:10 in the same medium to obtain P2. In a black 96-well plate were placed 200 μL of P2 and 10 μL of the short chain compound (medium, water and DMSO for the negative controls, C4-HSL as positive control, and the test sample at the desired concentration). The plate was incubated for 4 hours at 37° C. under stirring at 70 rpm. […] After that, the incubation was continued according to the conventional protocol, with the test compound at the desired concentrations.

| Structure (SMILES) | comparative survival of E. coli K12 (E. coli K12 strain) | activity on IL-8 secretion by keratinocytes (human keratinocytes) | measured cytotoxicity (LDH) (Caco-2/TC7 cells [2]) [%] | activity on IL-2 secretion by lymphocytes (human lymphocytes) | secreted LDH, Raw264.7 (Raw264.7 murine cells) | other results |
| --- | --- | --- | --- | --- | --- | --- |
| CCCCCCCCCC(=O)CC(=O)N[C@H]1CCSC1=O [I-3, 3-oxo N-[(3S)-tetrahydro-2-oxo-3-thienyl]-dodecanamide] | No significant differences | – | – | – | – | decrease in the inflammatory secretion (Caco-2/TC7 cells [1]; at 5 μM, IL-1β-stimulated Caco-2/TC7): 27% |
| CCCCCCCCCC(=O)CC(=O)N[C@H]1CCOC1=O [3-oxo-C12-HSL, N-(3(S)-oxododecanoyl) homoserine lactone, reference compound] | – | inactive | ≤ 2.5 | inactive | an increase in secreted LDH | – |
| CC/C=C\C/C=C\CCC(=O)CC(=O)N[C@H]1CCOC1=O [3-oxo-C12:2-HSL, reference compound] | – | inactive | ≤ 1.5 | inactive | an increase in secreted LDH | tolerance, Caco-2/TC7 (Caco-2/TC7 cells [2]; presence and absence of pro-inflammatory cytokines): well tolerated; bactericidal effect on E. coli K12 (E. coli K12 strain; 1-100 μM, 18 h of incubation): No toxic effect |
| CCCCCCCCCC(=O)CC(=O)NC1CCSC1=O (racemic) [I-1, 3-oxo-N-(tetrahydro-2-oxo-3-thienyl)-dodecanamide] | No significant differences | – | – | – | – | activity on IL-1β-stimulated Caco-2/TC7 cells compared with natural 3-oxo-C12 HSL (Caco-2/TC7 cells [1]; IL-1β stimulation, no concentration range stated): an activity equivalent to that of the natural 3-oxo-C12 HSL; activity on IL-1β-stimulated Caco-2/TC7 cells compared with natural 3-oxo-C12 HSL (Caco-2/TC7 cells [1]; at the 100 μM dose): more active than the latter; pEC50 (LasR receptor): 6.90 |
| CCCC(=O)N[C@H]1CCOC1=O [C4-HSL, reference compound] | – | – | – | – | – | pEC50 (LasR receptor; bacterial reporter strain, read-out: EC50 of LasR receptor activation): < 3.00 |

From patent publication US20220411397A1, “ANALOGUES OF N-ACYL-HOMOSERINE LACTONES AND PHARMACEUTICAL COMPOSITION COMPRISING SAME” (SORBONNE UNIVERSITE, priority 2019, published 2022)
